Legend:
Adenosine A1 receptor = biological target: T1, Adenosine A1 receptor (Homo sapiens, UniProt P30542); assay: FLIPR intracellular Ca2+ functional assay, recombinant CHO cells (A1/Gα6qi4myr); assay type: cell-based; conditions: read-out: EC50 values (agonist activity at adenosine receptors) A1
T1 construct: expressed in transfected cells; host or cells: CHO (Chinese hamster ovary) cells, stably double-transfected
T1 sequence (P30542 1-326): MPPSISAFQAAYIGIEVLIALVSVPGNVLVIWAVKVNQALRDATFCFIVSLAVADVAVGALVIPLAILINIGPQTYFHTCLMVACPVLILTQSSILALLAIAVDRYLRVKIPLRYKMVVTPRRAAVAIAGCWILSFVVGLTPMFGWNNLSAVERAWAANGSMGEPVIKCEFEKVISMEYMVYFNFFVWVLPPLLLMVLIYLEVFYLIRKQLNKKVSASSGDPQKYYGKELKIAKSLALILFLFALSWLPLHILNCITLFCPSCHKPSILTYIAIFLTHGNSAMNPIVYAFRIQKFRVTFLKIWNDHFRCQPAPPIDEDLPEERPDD
Procedure: (§1) In Vitro Functional Assays with Recombinant Cell Lines:
(§2) Functional assays were performed by detection of agonist-induced changes in the intracellular concentration of Ca^2+ in recombinant cell lines expressing adenosine receptor subtypes using the FLIPR™ (fluorescence imaging plate reader, Molecular Devices) technology. To allow optimal signalling through Ca^2+, chinese hamster ovary (CHO) cells were stably double-transfected with cDNAs to achieve expression of suitable combinations of adenosine receptor subtypes (A1, A2a, A2b or A3) with either G-protein Gα16 or hybrid protein Gα6qi4myr (German Patent Application no. 100333532.2). Optimal signals were achieved using combinations as follows:
(§3) For assays, recombinant cells were seeded in 96-well dishes (50000 cells/well) and grown overnight. Medium was then removed and cells incubated for 1 hour in buffer containing the dye Fluo-4. After incubation with dye, cells were washed, test compound added and changes in intracellular Ca^2+ concentration measured by FLIPR. Measured values were expressed as % change relative to controls (0%: no test compound added; 100%: 1 μM Adenosine added) and used for calculation of dose-response curves and subsequent determination of EC50 values.

Adenosine A2a receptor = biological target: T2, Adenosine A2a receptor (Homo sapiens, UniProt P29274); assay: FLIPR intracellular Ca2+ functional assay, recombinant CHO cells (A2a/Gα16); assay type: cell-based
T2 construct: expressed in transfected cells; host or cells: CHO (Chinese hamster ovary) cells, stably double-transfected
Procedure: as §1, §2, §3

Adenosine A2b receptor = biological target: T3, Adenosine A2b receptor (Homo sapiens, UniProt P29275); assay: FLIPR intracellular Ca2+ functional assay, recombinant CHO cells (A2b/Gα16); assay type: cell-based; conditions: for EC50: read-out: EC50 values (agonist activity at adenosine receptors) A2B
T3 construct: expressed in transfected cells; host or cells: CHO (Chinese hamster ovary) cells, stably double-transfected
T3 sequence (P29275 1-332): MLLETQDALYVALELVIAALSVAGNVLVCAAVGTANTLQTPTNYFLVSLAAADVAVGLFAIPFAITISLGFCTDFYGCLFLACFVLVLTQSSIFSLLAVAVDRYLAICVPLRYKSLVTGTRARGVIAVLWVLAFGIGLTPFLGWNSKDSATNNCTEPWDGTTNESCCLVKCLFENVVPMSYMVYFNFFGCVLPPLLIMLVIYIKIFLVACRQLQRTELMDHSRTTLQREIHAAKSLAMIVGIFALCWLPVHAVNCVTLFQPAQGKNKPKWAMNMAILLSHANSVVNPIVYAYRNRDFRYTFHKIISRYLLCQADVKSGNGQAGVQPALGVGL
Procedure: as §1, §2, §3

Adenosine A3 receptor = biological target: T4, Adenosine A3 receptor (Homo sapiens, UniProt P0DMS8); assay: FLIPR intracellular Ca2+ functional assay, recombinant CHO cells (A3/Gα6qi4myr); assay type: cell-based; conditions: for EC50: read-out: EC50 values (agonist activity at adenosine receptors) A3
T4 construct: expressed in transfected cells; host or cells: CHO (Chinese hamster ovary) cells, stably double-transfected
T4 sequence (P0DMS8 1-318): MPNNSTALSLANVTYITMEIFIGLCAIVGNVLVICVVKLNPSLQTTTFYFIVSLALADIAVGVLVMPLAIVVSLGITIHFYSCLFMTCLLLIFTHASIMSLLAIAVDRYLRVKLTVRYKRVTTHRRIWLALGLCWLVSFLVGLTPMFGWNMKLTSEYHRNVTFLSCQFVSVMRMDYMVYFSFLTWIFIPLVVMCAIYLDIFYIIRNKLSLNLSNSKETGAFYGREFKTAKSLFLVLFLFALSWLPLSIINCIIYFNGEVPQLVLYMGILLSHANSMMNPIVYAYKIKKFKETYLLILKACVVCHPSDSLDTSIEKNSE
Procedure: as §1, §2, §3

[1] = tested on: isolated guinea pig atrium; assay: Effect on the isolated guinea pig atrium (contractile force, heart rate)
Procedure: D. Effect on the Isolated Guinea Pig Atrium:
Guinea pigs of either sex were killed by a blow on the back of the neck and exsanguinated.
Their heart was taken out and the atria removed. The preparation (atrium) was immediately transferred to Ringer solution (JT 431) which was at a temperature of 32° C. and was bubbled with a mixture of 95% O2 and 5% CO2. The composition of the solution in […] was: NaCl 9.0; KCl 0.42 CaCl2 0.24; NaHCO3 0.2; glucose 1.0. The atrium beats spontaneously with an initial tension of 500 mg. The contractile force and the heart rate was recorded with a computer program and automatically calculated (B-mon and A-mon PC programs. Fa. Jäckel. Hanau. GERMANY). After equilibration, the test compound was added to a final bath concentration. N was 4-6 per concentration.

isolated rat adipocytes = assay: Antilipolytic effect in isolated rat adipocytes; assay type: cell-based; conditions: Adipocyte, adenosine deaminase-induced lipolysis (glycerol and free fatty acid release)
Procedure: E. Antilipolytic Effect in Isolated Rat Adipocytes:
For the preparation of isolated rat adipocytes, epididymal fat pads were obtained from male Sprague-Dawley rats (150-180 g) killed by decapitation. The main fat pad blood vessel was removed with forceps and the pads were cut into small pieces. Digestion was carried out at 37° C. in a shaking water bath by treating 1 g of sliced pad for 20 min with 3 ml of 1 mg/ml collagenase (type I, CLS, Worthington) in 1% BSA, fraction V, in KRH (Krebs-Ringer solution buffered with 25 mM HEPES/KOH, pH 7.4, containing 2.5 mM CaCl2, 2 mM glucose, 1 mM sodium pyruvate, 0.5 units/ml adenosin deaminase and 200 nM phenylisopropyl adenosine). The adipocytes were filtered through nylon mesh of sufficient pore size that no pressure other than gentle teasing with a plastic spatula was necessary for the cells to pass through. After three cycles of centrifugation (500 g, 1 min), aspiration of the infranatant. and resuspension in KRH containing 1% BSA, the cells were suspended in KRH containing 4% defatted BSA. Small aliquots of the final suspension were aspirated into capillary hematocrit tubes and centrifuged for 1 min in a Microhematocrit centrifuge in order to determine what fraction of the suspension consisted of fat cells. Results expressed as activities per unit volume of packed adipocytes (corresponding to equivalent numbers of cells) are based on this centrifugation procedure. Lipolysis was initiated by addition of a 100 μl aliquot of the adipocyte suspension to 700 μl of incubation medium [prewarmed to 37° C. and consisting of KRH, 4% defatted BSA and 1 U/ml adenosine deaminase (type I, Sigma)], with or without addition of 8 μl of a solution of the appropriate test substance in 100% DMSO (at a concentration corresponding to 100 times its concentration in the final mixture). […] Incubations were performed in 5 ml polypropylene vials agitated in a shaking water bath (140 cycles/min, amplitude 4.5 cm) at 37° C. for 20, 40, and 60 min. The incubation was terminated by addition of 200 μl of 50 mM EDTA buffered to pH 7.4 with Tris. For the glycerol determination, the whole mixture was mixed rapidly and homogenized with a ground glass pestle in a 1 ml ground glass homogenizing tube (10 pulses). The homogenate was transferred immediately to a 1.5 ml Eppendorf cup precooled to 4° C., after which the extracts were maintained at 4° C. The homogenate was then centrifuged (10,000 g, 15 min) and the infranatant below the fat cake removed with a glass Pasteur pipette. taking care not to aspirate the membrane pellet. and transferred to another Eppendorf cup. 300 μl aliquots of the infranatant were added to 300 μl volumes of 10% (w/v) HClO4. The precipitate was in each case removed by centrifugation (10,000 g, 2 min) and the supernatant neutralized with 20% (w/v) KOH, followed by addition of 50 μl of 1 M Tris/HCl, pH 7.4, A 50 μl sample was then incubated (5 min, 37° C.) with 1 ml of 0.1 M HEPES/KOH, pH 7.5, containing 2 mM ATP, 0.5 mM 4-aminoantipyrine, 1 mM EDTA, 0.5 U glycerol kinase, 4 U glycerol-3-phosphate oxidase, 2 U peroxidase, 2.7 mM p-chlorophenol, 0.04% Triton X-100 and 2 mM MgSO4.7H2O, and the glycerol content determined from the absorbance at 505 nm. For the determination of free fatty acids, 300 μl aliquots of the incubation mixture were added to 3 ml of chloroform/heptane (1:1 v/v) containing 2% (v/v) methanol. and the liberated free fatty acids determined with copper reagent and bathocuproine. The inhibitory activities of the cyclipostins were calculated from the combined results (glycerol and free fatty acid release) by plotting the log of the dose against the percent response (with the adenosine deaminase-induced lipolysis set at 100%). Data in the linear portion of the log (dose)-percent response curves were analyzed using parallel-line bioassay techniques.

T2 sequence (P29274 whole entry): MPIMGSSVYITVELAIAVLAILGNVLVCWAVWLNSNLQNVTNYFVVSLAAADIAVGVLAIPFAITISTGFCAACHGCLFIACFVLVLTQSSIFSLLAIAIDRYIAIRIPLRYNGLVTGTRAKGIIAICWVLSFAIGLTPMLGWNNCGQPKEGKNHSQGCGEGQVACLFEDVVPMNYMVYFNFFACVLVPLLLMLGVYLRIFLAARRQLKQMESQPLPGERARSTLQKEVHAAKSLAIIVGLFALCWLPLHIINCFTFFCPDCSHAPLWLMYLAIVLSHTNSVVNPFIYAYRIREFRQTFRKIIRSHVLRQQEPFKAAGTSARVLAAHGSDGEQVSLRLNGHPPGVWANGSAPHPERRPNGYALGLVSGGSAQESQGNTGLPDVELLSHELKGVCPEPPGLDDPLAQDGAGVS

EC50 (Adenosine A1 receptor) [µM]	EC50 values (agonist activity at adenosine receptors) A2A (Adenosine A2a receptor)	EC50 (Adenosine A2b receptor) [µM]	EC50 (Adenosine A3 receptor) [µM]	IC50 (isolated rat adipocytes) [µM]	melting point [°C]	Compound	Heart rate ([1]; at 1–100 μM)	also measured
0.15	inactive	> 30	> 50	0.005	–	O[C@@H]1[C@@H](CF)C[C@@H](n2cnc3c(N[C@H]4CCN(c5cccc(Cl)c5)C4)ncnc32)[C@@H]1O [Example 1, (1R,2S,3R,5S)-3-{6-[1-(3-chloro-phenyl-1-yl)-pyrrolidin-3(S)-ylamino]-purin-9-yl}-5-fluoromethyl-cyclopentane-1,2-diol]	no effect at 1–100 μM	–
0.02	inactive	3.4	> 40	0.02	–	CC[C@H](Cc1sccc1Cl)Nc1ncnc2c1ncn2[C@@H]1C[C@H](CF)[C@@H](O)[C@H]1O [Example 2, (1R,2S,3R,5S)-3-{6-[(R)-1-(3-chloro-thiophen-2-ylmethyl) -propylamino]-purin-9-yl}-5-fluoromethyl-cyclopentane-1,2-diol]	–	Contractile force ([1]; at 10 μM): −4% at 10 μM; Heart rate ([1]; at 10 μM): −4% at 10 μM
–	–	–	–	–	130	O[C@@H]1[C@@H](COC(F)(F)F)C[C@@H](n2cnc3c(N[C@H]4CCN(c5ccc(Cl)cn5)C4)ncnc32)[C@@H]1O [Example 9, (1R,2S,3R,5R)-3-{6-[1-(5-chloro-pyridin-2-yl)-pyrrolidin-3(S) -ylamino]-purin-9-yl}-5-trifluoromethoxymethyl-cyclopentane-1,2-diol]	–	–

Further lines, the compound ahead of its results:

Compound	EC50 (Adenosine A1 receptor) [µM]	EC50 values (agonist activity at adenosine receptors) A2A (Adenosine A2a receptor)	EC50 (Adenosine A2b receptor) [µM]	EC50 (Adenosine A3 receptor) [µM]	IC50 (isolated rat adipocytes) [µM]	melting point [°C]	Heart rate ([1]; at 1–100 μM)	also measured
O[C@@H]1[C@@H](COC(F)(F)F)C[C@@H](n2cnc3c(N[C@H]4CCN(c5cccc(Cl)c5)C4)ncnc32)[C@@H]1O [Example 3, (1R,2S,3R,5R)-3-{6-[1-(3-chloro-phenyl-1-yl)-pyrrolidin-3(S)-ylamino]-purin-9-yl}-5-trifluoromethoxymethyl-cyclopentane-1,2-diol]	3.69	–	–	–	–	–	–	EC50 (Adenosine A2a receptor; read-out: EC50 values (agonist activity at adenosine receptors) A2A): > 30 µM; EC50 values (agonist activity at adenosine receptors) A2B (Adenosine A2b receptor): inactive; EC50 values (agonist activity at adenosine receptors) A3 (Adenosine A3 receptor): inactive
O[C@@H]1[C@@H](CF)C[C@@H](n2cnc3c(N[C@H]4CCN(c5ccc(C(F)(F)F)cn5)C4)ncnc32)[C@@H]1O [Example 4, (1R,2S,3R,5S)-3-{6-[1-(5-trifluoromethyl-pyridin-2-yl)-pyrrolidin-3(S)-ylamino]-purin-9-yl}-5-fluoromethyl-cyclopentane-1,2-diol]	1.61	Inactive	> 30	> 50	0.1	–	no effect at 1–100 μM	Contractile force ([1]; at 10 μM): −7% at 10 μM
O[C@@H]1[C@@H](CF)C[C@@H](n2cnc3c(N[C@H]4CCN(c5ccc(Cl)cn5)C4)ncnc32)[C@@H]1O [Example 6, (1R,2S,3R,5S)-3-{6-[1-(5-chloro-pyridin-2-yl)-pyrrolidin-3(S) -ylamino]-purin-9-yl}-5-fluoromethyl-cyclopentane-1,2-diol]	1.25	Inactive	> 30	–	0.01	–	no effect at 1–100 μM	EC50 values (agonist activity at adenosine receptors) A3 (Adenosine A3 receptor): inactive; Contractile force ([1]; at 30 μM): −3% at 30 μM
O[C@@H]1[C@@H](COC(F)(F)F)C[C@@H](n2cnc3c(N[C@H]4CCN(c5ccc(C(F)(F)F)cn5)C4)ncnc32)[C@@H]1O [Example 8, (1R,2S,3R,5R)-3-{6-[1-(5-trifluoromethyl-pyridin-2-yl)-pyrrolidin-3(s)-ylamino]-purin-9-yl}-5-trifluoromethoxymethyl-cyclopentane-1,2-diol]	–	–	–	–	–	142	–	–
CC[C@H](Cc1sccc1Cl)Nc1ncnc2c1ncn2[C@@H]1C[C@H](COC(F)(F)F)[C@@H](O)[C@H]1O [Example 11, (1R,2S, 3R, 5R)-3-{6-[(R)-1-(3-chloro-thiophen-2-ylmethyl) -propylamino]-purin-9-yl}-5-trifluoromethoxymethyl-cyclopentane-1,2-diol]	–	–	–	–	–	140	–	–

Reference: patent US7265111B2, “Adenosine analogues and their use as pharmaceutical agents” (Sanofi-Aventis Deutschland GmbH, priority 2002, dated 2007)
